This note sets out measurements from patent publication EP1220870B1, “METAL-BINDING COMPOUNDS AND USES THEREFOR” (DMI Biosciences, Inc., priority 1999, dated 2001).

No end group written: not given here.

Common to all, as to format: biochemical
The subject of test [1] is Superoxide radical. In words: Superoxide dismutase (SOD) activity, xanthine oxidase/NBT assay. The conditions noted are these: for SOD activity (inhibition of NBT reduction): xanthine oxidase assay, pH 10.2, 1.2 µM EDTA. How it is done: The SOD activity of copper complexes of the tetrapeptide L-Asp L-Ala L-His L-Lys [SEQ ID NO:1] was assayed. Superoxide radicals were produced using the xanthine oxidase assay of Beauchamp and Fridovich, Anal. Biochem., 44:276-287 (1971). Xanthine oxidase converts xanthine into uric acid, with oxygen acting as an electron acceptor. This causes superoxide radical to be produced. Superoxide radical is able to reduce nitro blue tetrazolium (NBT). Reduced NBT has a λmax of 560 nm. It is known that copper inhibits xanthine oxidase activity (Konstantinova et al., Free Rad. Res. Comms., 12-13:215-220 (1991)), so all experiments containing copper also contained ethylenediaminetetracetic acid (EDTA), a known copper chelator.
To perform the assay for SOD activity, 0.1 mM xanthine (Sigma Chemical Co.), 25 µM NBT (Sigma Chemical Co.), 50 mM sodium carbonate, and 1.2 µM EDTA (Sigma Chemical Co.), were mixed in a cuvette (all final concentrations, final pH 10.2). The reaction was started by the addition of various amounts of a tetrapeptide-copper complex (tetrapeptide/copper ratios of 1:1 and 2:1) and 20 nM xanthine oxidase (Sigma Chemical Co.). The tetrapeptide-copper complex was prepared by mixing the tetrapeptide and copper (as CuCl2) and allowing the mixture to incubate for 15 minutes at room temperature immediately before addition to the cuvette. The samples were read at time 0 and every 60 seconds for five minutes at 560 nm.

In the next test the target is T1, xanthine oxidase (Bos taurus, UniProt P80457).
T1 construct: purchased Sigma Chemical Co
The experiment in a line: Uric acid production at 295 nm (check for interference with xanthine oxidase activity). The conditions noted are these: concentration of 600 nM; data not shown. How it is done: Athar et al., Biochem. Mol. Biol. Int., 39(4):813-821 (1996); Ciuffi et al., Pharmacol Res., 38(4):279-287 (1998). This assay is similar to the SOD assay, except that NBT is not present. Instead, uric acid is assayed at 295 nm every 60 seconds for 5 minutes. […] Since superoxide is converted to hydrogen peroxide by the complex, this could help to explain why it is not effective at preventing hydroxyl radical production.

Test [2] deals with Superoxide radical. The experiment in a line: Superoxide radical production, NBT reduction with copper and ascorbate. Particulars: 37°C, read at 560 nm at 5, 15, 30 and 60 minutes, maximum decreased for the 1:1 complex. How it is done: Superoxide radical production was measured in solutions containing the 1:1 or 2:1 tetrapeptide-copper complexes. The assay combined techniques from the TBA assay and the xanthine oxidase assay. NBT was added to all test tubes in order to quantitate its reduction by superoxide radical. The samples also contained ascorbate and copper and were incubated at 37°C. At 5,15,30 and 60 minutes, the samples were removed from the incubator and read at 560 nm. In the sample containing the 2:1 tetrapeptide-copper complex, NBT reduction increased over time and reached a maximum at 3 0 minutes.

The next test has as its system hydroxyl radicals. The experiment in a line: Inhibition of hydroxyl radical production, Cu(II)/ascorbic acid deoxyribose TBA assay (Example 10). Particulars: compound/copper 2:1; for % Inhibition: percent decrease in absorbance compared to buffer alone. How it is done:
The ability of the compounds listed above to inhibit the generation of hydroxyl radicals was tested as described in Gutteridge and Wilkins, Biochim. Biophys. Acta, 759:38-41 (1983). Briefly, Cu(II) and ascorbic acid were mixed causing the generation of hydroxyl radicals. Then, deoxyribose was added, and the hydroxyl radicals, if present, attacked the deoxyribose to produce fragments. […]. Thus, absorbance at 532 nm is a measure of the damage to deoxyribose and, therefore, of hydroxyl radical formation.
To perform the assay, CuCl2 in buffer (20 mM KH2PO4 buffer, pH 7.4) and either one of the test compounds in buffer or buffer alone were added to test tubes (final concentration of CuCl2 was 10µM). The test tubes were incubated for 15 minutes at room temperature. Then, 0.5 mM ascorbic acid in buffer and 1.9 mM 2-deoxy-D-ribose in buffer were added to each test tube, and the test tubes were incubated for 1 hour at 37°C. Finally, 1 ml of 1% (w/v) TBA in 50 mM NaOH and 1 ml of concentrated acetic acid were added to each test tube, and the test tubes were incubated in boiling water for 15 minutes. After the test tubes had cooled for 15 minutes, the absorbance at 532 nm was read.

T1 sequence (P80457 whole entry): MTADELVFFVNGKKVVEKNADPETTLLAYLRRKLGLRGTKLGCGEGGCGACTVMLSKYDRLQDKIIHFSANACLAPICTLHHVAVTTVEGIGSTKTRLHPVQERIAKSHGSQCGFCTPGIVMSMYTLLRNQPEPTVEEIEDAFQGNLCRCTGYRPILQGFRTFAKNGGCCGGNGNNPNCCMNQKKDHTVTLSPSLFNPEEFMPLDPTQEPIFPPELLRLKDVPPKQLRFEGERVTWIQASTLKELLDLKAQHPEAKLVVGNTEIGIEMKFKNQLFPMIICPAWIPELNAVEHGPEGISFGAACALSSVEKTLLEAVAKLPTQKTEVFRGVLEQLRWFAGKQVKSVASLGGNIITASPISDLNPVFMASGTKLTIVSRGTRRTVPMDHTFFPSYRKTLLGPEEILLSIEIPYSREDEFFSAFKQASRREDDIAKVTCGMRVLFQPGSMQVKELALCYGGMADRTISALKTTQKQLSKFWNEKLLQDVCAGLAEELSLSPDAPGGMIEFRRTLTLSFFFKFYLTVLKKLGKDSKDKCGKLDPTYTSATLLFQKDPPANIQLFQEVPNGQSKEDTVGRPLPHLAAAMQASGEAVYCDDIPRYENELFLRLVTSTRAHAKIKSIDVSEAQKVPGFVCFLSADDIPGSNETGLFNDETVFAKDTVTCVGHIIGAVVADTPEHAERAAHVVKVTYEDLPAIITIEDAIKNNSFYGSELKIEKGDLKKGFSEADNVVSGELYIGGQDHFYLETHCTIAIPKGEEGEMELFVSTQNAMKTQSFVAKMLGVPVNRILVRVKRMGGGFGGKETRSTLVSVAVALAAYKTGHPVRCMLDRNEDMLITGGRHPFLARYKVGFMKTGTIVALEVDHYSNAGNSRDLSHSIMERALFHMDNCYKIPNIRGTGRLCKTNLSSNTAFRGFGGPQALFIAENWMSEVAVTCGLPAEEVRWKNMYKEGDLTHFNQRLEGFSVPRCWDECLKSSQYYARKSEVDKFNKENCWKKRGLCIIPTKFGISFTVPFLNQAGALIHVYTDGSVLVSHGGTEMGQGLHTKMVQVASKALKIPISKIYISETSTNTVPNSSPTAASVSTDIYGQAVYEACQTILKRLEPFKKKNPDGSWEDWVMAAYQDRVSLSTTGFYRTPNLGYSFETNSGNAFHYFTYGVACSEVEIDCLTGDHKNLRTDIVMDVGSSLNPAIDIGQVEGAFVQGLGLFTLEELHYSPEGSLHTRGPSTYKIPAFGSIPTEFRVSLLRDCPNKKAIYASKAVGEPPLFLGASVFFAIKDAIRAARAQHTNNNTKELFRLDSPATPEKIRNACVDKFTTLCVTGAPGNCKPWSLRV

Regarding “2:1 tetrapeptide-copper complex: complex of L-Asp L-Ala L-His L-Lys and copper (as CuCl2), tetrapeptide/copper ratio 2:1 (DAHK; also: copper complex, peptide:Cu 2:1 (as CuCl2); UniProt P02768 25-28, looked up, fragment)”, the “SOD activity (inhibition of NBT reduction)” value with Superoxide radical [1] was “no SOD activity”.

On to “1:1 tetrapeptide-copper complex: complex of L-Asp L-Ala L-His L-Lys and copper (as CuCl2), tetrapeptide/copper ratio 1:1 (DAHK; also: copper complex, peptide:Cu 1:1 (as CuCl2); UniProt P02768 25-28, looked up, fragment)”, for which, in the test with xanthine oxidase, the “inhibition of uric acid production” value turned out to be 11%. Further, the “times less effective than SOD itself, based on IC50 values” at Superoxide radical [1] (tetrapeptide/copper ratio 1:1, IC50 = amount that gives 50% inhibition) is “about 500 times”. In addition, the “SOD activity (inhibition of NBT reduction)” value is “true SOD activity” with Superoxide radical [1] and “have SOD activity” with Superoxide radical [1] (listed as complex of the tetrapeptide with copper at a ratio of 1:1). Moreover, the “time at which NBT reduction reached a maximum” value in the test on Superoxide radical [2] was 60 min.

Turning to `N[C@@H](Cc1c[nH]cn1)C(=O)O` [Histidine, histidine], the results for the “% Inhibition” value in the test with hydroxyl radicals and with hydroxyl radicals (listed as Histindine) were “about 20%” and 20.3%, respectively. In the test on hydroxyl radicals (second absorbance column (copper only 0.954)), the “Absorbance at 532 nm” value worked out at 0.760.

The % Inhibition is the percentage by which the read-out fell short of the control. A low value points to little suppression.
